Data published in patent US8349297B2, “Topical formulations” (Medpharm Limited, priority 2005, dated 2013).

How the values were obtained:
[1] = Phase diagram construction with visual solubility assessment
Experimental: Formulations were prepared by the sequential weighing of the drug followed by the remaining excipients into a 10 mL PET glass coated canister. A magnetic stirrer bar was added and the formulations were crimped with a 100 μL valve. The formulations were allowed to shake for approximately 16 h at room temperature prior to the addition of HFA, and then shaken for a further 8 h prior to visual solubility assessment.

[2] = Solubility studies in PET canisters (clarity observed, ternary phase plot); type: physicochemical
Experimental: Solubility studies were conducted in clear, PET canisters. Stir bars were added to the canister and the canister was tared on an analytical balance. […] Lids were placed on the canisters and crimped. The solutions were left to stir overnight. […] All percentages are based on weight/weight calculations.

[3] = Stability of BMV in the skin permeation system; type: physicochemical; settings: at both 4° C. and 37° C.
Experimental: Stratum corneum was isolated from a frozen human skin sample using standard protocol. The prepared skin was mounted on a filter support and placed on the receiver section of an upright Franz cell. The donor compartment was then fixed on top of the receiver compartment and secured using Parafilm. A magnetic flea and thermostatically regulated receiver fluid (90:10 Acetate Buffer pH=4.5:EtOH) were added to each Franz cell. These cells were placed in a bath at 37° C. and allowed to equilibrate and after a few hours a blank sample was taken from each cell. The integrity of each cell was determined via inversion and an appropriate amount of formulation was applied to the donor chamber of the Franz cell. […] Samples were held at room temperature until HPLC analysis.

Structure (SMILES): O=C(OOC(=O)c1ccccc1)c1ccccc1 [BPO, Benzoyl peroxide]
- drug level at which a saturated system could be formed ([1]; 10% ethanol, PVP K90): 1%

Structure (SMILES): CCCCC(=O)O[C@]1(C(=O)CO)[C@@H](C)C[C@H]2[C@@H]3CCC4=CC(=O)C=C[C@]4(C)[C@@]3(F)[C@@H](O)C[C@@]21C [BMV, betamethasone valerate]
- PVP level at which the drug becomes insoluble [2]: around 3 % PVP
- maximum solubility [2]: 1-1.2%
- time for which BMV was shown to be stable in the system [3]: up to 72 h

Structure (SMILES): O=C(O)c1ccccc1O [salicylic acid]
- drug level at which a saturated system could be formed ([1]; 83% HFA, ethanol level varied, co-povidone S-630): 2%
